Like-named read-outs stand apart in the source and are kept apart here.
Experiments:
6H-hSMG-1 = molecular target: T1, 6H-hSMG-1 (Homo sapiens, UniProt Q96Q15); test: in vitro kinase assay of 6H-hSMG-1 with hUpf1/SMG-2 fusion protein (S1096) as substrate; type: biochemical; details: substrate hUpf1/SMG-2 fusion protein (S1096), read-out: IC50, inhibition of the kinase activity of 6H-hSMG-1
T1 construct: made in house; host or cells: 293T cells transfected with SR6H-hSMG-1; immunoprecipitated with anti-polyhistidine antibody
Description: The immunoprecipitates obtained in the Example 6(1) were washed with a lysis buffer F containing 0.25 mol/L LiCl, and then washed two times with a 1×kinase reaction buffer [10 mmol/L HEPES-KOH (pH7.5), 50 mmol/L β-glycerophosphoric acid, 50 mmol/L NaCl, 1 mmol/L dithiothreitol (DTT), and 10 mmol/L MnCl2].
To each of the washed immunoprecipitates, 25 μL of 2×kinase reaction buffer (that is, two-fold concentrations of the above kinase reaction buffer) was added. The phosphorylation reaction was started by adding 10 mmol/L ATP and 370 kBq [γ-^32P] ATP (6000 Ci/mmol; Amersham Pharmacia Biotech) in equal amounts (25 μL) and continued, with occasional stirring, at 30° C. for 30 minutes. The final reaction amount was maintained at 50 μL, then 25 μL of a 4×SDS sample buffer was added to stop the reaction. SDS-PAGE was performed at gel concentrations of 5.5% and 12.5%, and then autoradiography was carried out to detect the phosphorylated proteins. The phosphorylation strength of each protein was measured by an Image Analyzer BAS2000 (Fuji Film).
More particularly, 6H-hSMG-1 was prepared in accordance with the procedure described in Example 7(3). In the presence of various concentrations of wortmannin or caffeine shown in FIG. 26 and FIG. 27, the hUpf1/SMG-2 fusion protein (S1096) prepared in Example 9(3) was used as the substrate, to perform an in vitro kinase assay. […]

[1] = system: BGG-39PTC mRNA in MEF-Tet OFF cells; test: BGG reporter mRNA accumulation (NMD) in MEF-Tet OFF cells, Northern blotting; type: cell-based; details: 4.5 hours, 50 ng/ml doxycycline, FIG. 29
Description: More particularly, MEF-Tet OFF cells were transfected with the reporter plasmid BGG-WT or the reporter plasmid BGG-39 PTC, and re-inoculated in eight dishes. The cells were then treated for 4.5 hours in the presence of 50 ng/ml doxycycline by various concentrations of caffeine (caff.), wortmannin (wort.), rapamycin (rap.), or cyclohexamide (CHX) shown in FIG. 29.
The Total RNA was analyzed by Northern blotting using the BGG probe. In FIG. 29, “BG WT” means the results in the case of use of the reporter plasmid BGG-WT, “BG PTC” means the results in the case of use of the reporter plasmid BGG-39PTC, and “GAPDH” means the results in the case of use of the cDNA of glyceryl aldehyde-3-phosphate dehydrogenase as a probe. Further, “cont.”, “caff.”, “wort.”, “rap.”, and “CHX” show the results of the control (that is, in the absence of wortmannin, caffeine, rapamycin, and cyclohexamide), the results in the presence of caffeine, the results in the presence of wortmannin, the results in the presence of rapamycin, and the results in the presence of cyclohexamide, respectively.

[2] = system: hUpf1/SMG-2 in HeLa cells; test: mobility shift of hUpf1/SMG-2 in HeLa cells treated with okadaic acid, Western blotting; type: cell-based, human; details: various concentrations, 4.5 hours, FIG. 23
Description: The HeLa cells were treated with various concentrations of okadaic acid (OA; Calbiochem) for 4.5 hours, and then were recovered and dissolved in the 1×SDS sample buffer. After 6% SDS-PAGE was performed, Western blotting using an anti-hUpf1/SMG-2 antibody was performed to determine the mobility shift of hUpf1/SMG-2.

[3] = system: hUpf1/SMG-2 phosphorylation in HeLa cells; type: cell-based, human; details: 30 min pretreatment, then 4.5 hours with 50 nmol/L okadaic acid, FIG. 28
Description: HeLa cells were pretreated for 30 minutes in the presence or absence of various concentrations of wortmannin, caffeine, or rapamycin shown in FIG. 28. Next, the cells were treated for 4.5 hours in the presence of wortmannin, caffeine, or rapamycin and in the presence or absence of 50 nmol/L okadaic acid. Cell lysates were prepared and analyzed by Western blotting using the anti-Upf1/SMG-2 antibody.
Further, “hUPF1-P” means phosphorylated hUpf1/SMG-2, while “hUPF1” means unphosphorylated hUpf1/SMG-2.

T1 sequence (Q96Q15 111-3661): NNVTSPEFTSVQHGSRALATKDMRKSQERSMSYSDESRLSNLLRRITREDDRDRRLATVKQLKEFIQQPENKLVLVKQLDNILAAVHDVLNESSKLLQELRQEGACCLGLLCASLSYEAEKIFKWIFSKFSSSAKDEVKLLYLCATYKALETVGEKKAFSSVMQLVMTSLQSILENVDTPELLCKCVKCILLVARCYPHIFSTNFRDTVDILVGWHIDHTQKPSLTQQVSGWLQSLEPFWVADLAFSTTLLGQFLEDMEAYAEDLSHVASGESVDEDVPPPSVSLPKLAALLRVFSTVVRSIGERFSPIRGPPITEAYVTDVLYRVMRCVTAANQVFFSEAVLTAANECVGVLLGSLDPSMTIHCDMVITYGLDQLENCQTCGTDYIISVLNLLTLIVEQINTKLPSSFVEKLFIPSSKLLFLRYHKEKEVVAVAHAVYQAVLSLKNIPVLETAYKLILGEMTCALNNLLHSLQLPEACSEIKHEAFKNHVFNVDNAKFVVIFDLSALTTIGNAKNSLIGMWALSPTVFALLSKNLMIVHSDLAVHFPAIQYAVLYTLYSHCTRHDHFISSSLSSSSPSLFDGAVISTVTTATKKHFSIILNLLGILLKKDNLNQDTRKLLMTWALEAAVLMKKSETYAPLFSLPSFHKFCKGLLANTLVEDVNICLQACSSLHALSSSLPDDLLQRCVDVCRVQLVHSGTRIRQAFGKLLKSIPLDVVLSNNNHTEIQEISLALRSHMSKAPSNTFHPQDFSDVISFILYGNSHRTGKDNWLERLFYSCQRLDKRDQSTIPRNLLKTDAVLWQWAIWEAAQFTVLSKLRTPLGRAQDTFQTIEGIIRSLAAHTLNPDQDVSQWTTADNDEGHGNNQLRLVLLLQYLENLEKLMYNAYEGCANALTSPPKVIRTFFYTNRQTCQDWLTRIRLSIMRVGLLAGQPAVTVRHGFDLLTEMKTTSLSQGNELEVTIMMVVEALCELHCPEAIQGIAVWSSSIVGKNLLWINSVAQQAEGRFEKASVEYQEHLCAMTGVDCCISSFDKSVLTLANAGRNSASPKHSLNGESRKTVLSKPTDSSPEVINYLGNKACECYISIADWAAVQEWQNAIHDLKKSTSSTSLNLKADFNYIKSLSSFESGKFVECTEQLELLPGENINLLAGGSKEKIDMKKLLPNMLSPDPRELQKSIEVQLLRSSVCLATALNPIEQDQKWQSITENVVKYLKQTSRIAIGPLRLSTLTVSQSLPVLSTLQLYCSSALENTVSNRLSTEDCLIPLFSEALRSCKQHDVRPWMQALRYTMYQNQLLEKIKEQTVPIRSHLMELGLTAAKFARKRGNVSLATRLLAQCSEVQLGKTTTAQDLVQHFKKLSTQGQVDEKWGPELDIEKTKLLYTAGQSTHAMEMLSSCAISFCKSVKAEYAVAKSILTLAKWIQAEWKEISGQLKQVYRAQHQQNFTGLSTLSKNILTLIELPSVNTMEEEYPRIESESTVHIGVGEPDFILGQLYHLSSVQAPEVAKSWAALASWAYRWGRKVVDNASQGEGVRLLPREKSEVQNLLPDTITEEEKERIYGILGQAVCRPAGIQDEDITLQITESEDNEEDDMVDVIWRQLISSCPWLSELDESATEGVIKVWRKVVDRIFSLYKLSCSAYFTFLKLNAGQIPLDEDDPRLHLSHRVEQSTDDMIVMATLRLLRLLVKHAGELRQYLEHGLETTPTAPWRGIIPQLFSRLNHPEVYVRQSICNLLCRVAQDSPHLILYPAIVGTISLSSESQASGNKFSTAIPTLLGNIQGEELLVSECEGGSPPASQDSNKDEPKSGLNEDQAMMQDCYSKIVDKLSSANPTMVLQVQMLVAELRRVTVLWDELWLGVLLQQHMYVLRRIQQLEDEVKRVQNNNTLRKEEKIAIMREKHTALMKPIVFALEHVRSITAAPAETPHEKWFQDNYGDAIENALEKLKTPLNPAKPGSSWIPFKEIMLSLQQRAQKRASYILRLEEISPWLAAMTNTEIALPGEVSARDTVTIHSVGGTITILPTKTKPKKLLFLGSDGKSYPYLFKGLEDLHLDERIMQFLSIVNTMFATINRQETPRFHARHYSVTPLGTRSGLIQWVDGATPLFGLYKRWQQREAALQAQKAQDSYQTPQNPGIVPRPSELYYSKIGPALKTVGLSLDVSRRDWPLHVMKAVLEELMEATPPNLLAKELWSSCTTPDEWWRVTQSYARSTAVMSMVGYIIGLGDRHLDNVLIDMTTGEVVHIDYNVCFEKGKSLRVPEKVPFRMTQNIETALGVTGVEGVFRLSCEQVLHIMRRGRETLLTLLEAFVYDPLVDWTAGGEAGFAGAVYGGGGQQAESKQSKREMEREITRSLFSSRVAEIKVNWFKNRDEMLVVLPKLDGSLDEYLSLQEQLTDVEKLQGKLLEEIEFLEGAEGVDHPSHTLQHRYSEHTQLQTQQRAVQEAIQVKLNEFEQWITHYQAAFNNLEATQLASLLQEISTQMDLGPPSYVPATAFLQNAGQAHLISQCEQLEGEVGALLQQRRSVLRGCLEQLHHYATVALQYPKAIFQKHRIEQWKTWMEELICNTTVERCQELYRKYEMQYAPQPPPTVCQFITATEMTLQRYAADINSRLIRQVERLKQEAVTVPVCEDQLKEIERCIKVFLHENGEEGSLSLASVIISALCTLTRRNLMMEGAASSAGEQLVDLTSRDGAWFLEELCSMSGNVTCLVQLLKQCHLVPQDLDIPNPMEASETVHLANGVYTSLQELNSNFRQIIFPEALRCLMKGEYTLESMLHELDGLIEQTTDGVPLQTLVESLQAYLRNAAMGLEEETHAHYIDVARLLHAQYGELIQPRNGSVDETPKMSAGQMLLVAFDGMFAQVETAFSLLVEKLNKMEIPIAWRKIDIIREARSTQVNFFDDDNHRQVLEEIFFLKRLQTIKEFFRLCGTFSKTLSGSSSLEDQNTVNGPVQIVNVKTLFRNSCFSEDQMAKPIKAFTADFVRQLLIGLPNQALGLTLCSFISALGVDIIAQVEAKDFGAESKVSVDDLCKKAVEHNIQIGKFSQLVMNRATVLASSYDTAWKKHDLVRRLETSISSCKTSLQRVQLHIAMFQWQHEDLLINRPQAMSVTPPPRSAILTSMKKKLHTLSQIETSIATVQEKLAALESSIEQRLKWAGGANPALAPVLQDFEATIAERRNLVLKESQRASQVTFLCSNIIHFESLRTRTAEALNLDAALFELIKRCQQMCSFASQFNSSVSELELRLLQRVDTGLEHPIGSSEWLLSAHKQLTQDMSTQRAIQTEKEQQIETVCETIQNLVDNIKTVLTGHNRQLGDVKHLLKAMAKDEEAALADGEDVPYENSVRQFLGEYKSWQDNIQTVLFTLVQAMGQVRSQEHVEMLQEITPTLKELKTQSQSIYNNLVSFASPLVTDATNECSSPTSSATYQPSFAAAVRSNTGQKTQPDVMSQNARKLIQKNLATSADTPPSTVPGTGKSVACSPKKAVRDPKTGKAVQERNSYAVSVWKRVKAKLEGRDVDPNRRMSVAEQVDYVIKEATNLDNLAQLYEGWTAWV

For `COC[C@H]1OC(=O)c2coc3c2[C@@]1(C)C1=C(C3=O)[C@@H]2CCC(=O)[C@@]2(C)C[C@H]1OC(C)=O` [wortmannin], the IC50 (6H-hSMG-1; FIG. 26) was roughly 0.06 µM.
`C[C@@H]1C[C@@H]([C@H](O)CC2CC(=O)NC(=O)C2)C(=O)[C@@H](C)C1` [CHX, cyclohexamide] was tested, and the “inhibition of NMD” value [1] was “inhibited NMD”.
`C=C1[C@@H](O)[C@@H]2O[C@]3(CC[C@H](/C=C/[C@@H](C)[C@@H]4CC(C)=C[C@@]5(O[C@H](C[C@@](C)(O)C(=O)O)CC[C@H]5O)O4)O3)CC[C@H]2O[C@@H]1[C@@H](O)C[C@H](C)[C@H]1O[C@@]2(CCCCO2)CC[C@H]1C` [okadaic acid] was tested, and the “upwardly shifted (phosphorylated) band of hUpf1/SMG-2” value [2] was “upwardly shifted band of hUpf1/SMG-2 appears”.
With `Cn1c(=O)c2c(ncn2C)n(C)c1=O` [caffeine] the “inhibition of the upward shift of hUpf1/SMG-2” value [3] was “inhibited the upward shift”, the IC50 (6H-hSMG-1; FIG. 27) was roughly 300 µM and the “accumulation of BGG 39PTC mRNA” value [1] was “resulted in the accumulation of BGG 39PTC”.

Reference: patent US20040137592A1, “Novel SMG-1” (Japan Science and Technology Agency, priority 2001, published 2004)
